Assay results taken from PubChem BioAssay AID330 (DTP/NCI, 2004).
Where “and” joins values, the source holds several entries; their conditions need not be identical. Identical values can stand only once. Inconclusive results and toxic doses are left out.

System: P388 leukemia ip, CD2F1 mice, survival T/C
Assay: NCI In Vivo Anticancer Drug Screen. Data for tumor model P388 Leukemia (intraperitoneal) in CD2F1 (CDF1) mice
Details: endpoint: median survival time, higher = longer survival
Procedure, shortened: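 Mice carrying the transplanted tumor received test compound or vehicle. Survival was recorded in each group, and the value is the treated-group measurement divided by that of the vehicle-treated control group.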

[1] = dose: 25.0 mg/kg/injection, schedule: Q01DX005 (ip), vehicle: Klucel (hydroxypropylcellulose) (HPC)
[2] = dose: 25.0 mg/kg/injection, schedule: Q01DX009 (ip), vehicle: Klucel (hydroxypropylcellulose) (HPC)
[3] = dose: 50.0 mg/kg/injection, schedule: Q01DX009 (ip), vehicle: Klucel (hydroxypropylcellulose) (HPC)
[4] = dose: 200.0 mg/kg/injection, schedule: Q01DX009 (ip), vehicle: Klucel (hydroxypropylcellulose) (HPC)
[5] = dose: 50.0 mg/kg/injection, schedule: Q01DX009 (ip), vehicle: saline
[6] = dose: 50.0 mg/kg/injection, schedule: Q01DX005 (ip), vehicle: Klucel (hydroxypropylcellulose) (HPC)
[7] = dose: 100.0 mg/kg/injection, schedule: Q01DX005 (ip), vehicle: Klucel (hydroxypropylcellulose) (HPC)
[8] = dose: 200.0 mg/kg/injection, schedule: Q01DX005 (ip), vehicle: Klucel (hydroxypropylcellulose) (HPC)
[9] = dose: 100.0 mg/kg/injection, schedule: Q01DX009 (ip), vehicle: saline
[10] = dose: 200.0 mg/kg/injection, schedule: Q01DX009 (ip), vehicle: saline
[11] = dose: 100.0 mg/kg/injection, schedule: Q04DX003 (ip), vehicle: Klucel (hydroxypropylcellulose) (HPC)
[12] = dose: 200.0 mg/kg/injection, schedule: Q04DX003 (ip), vehicle: Klucel (hydroxypropylcellulose) (HPC)
[13] = dose: 400.0 mg/kg/injection, schedule: Q04DX003 (ip), vehicle: Klucel (hydroxypropylcellulose) (HPC)
[14] = dose: 60.0 mg/kg/injection, schedule: Q01DX005 (ip), vehicle: Klucel (hydroxypropylcellulose) (HPC)
[15] = dose: 120.0 mg/kg/injection, schedule: Q01DX005 (ip), vehicle: Klucel (hydroxypropylcellulose) (HPC)
[16] = dose: 240.0 mg/kg/injection, schedule: Q01DX005 (ip), vehicle: Klucel (hydroxypropylcellulose) (HPC)

SMILES: Cc1ccc2ccccc2[n+]1CC(=O)c1ccc([N+](=O)[O-])cc1
- T/C (dose: 6.25 mg/kg/injection, schedule: Q01DX005 (ip), vehicle: Klucel (hydroxypropylcellulose) (HPC)): 108 % of control
- T/C (dose: 12.5 mg/kg/injection, schedule: Q01DX005 (ip), vehicle: Klucel (hydroxypropylcellulose) (HPC)): 108 % of control
- T/C [1]: 103 % of control
- T/C (dose: 50.0 mg/kg/injection, schedule: Q01DX005 (ip), vehicle: saline with Tween-80): 96 % of control
- T/C (dose: 100.0 mg/kg/injection, schedule: Q01DX005 (ip), vehicle: saline with Tween-80): 102 % of control
- T/C (dose: 200.0 mg/kg/injection, schedule: Q01DX005 (ip), vehicle: saline with Tween-80): 111 % of control

SMILES: Cc1cc(OC2OC(CO)C(O)C(O)C2O)ccc1O (stereo unspecified)
- T/C [2]: 87 % of control
- T/C [3]: 96 % of control
- T/C [4]: 89 % of control

SMILES: C=C(C)CCC(N)C(=O)O (stereo unspecified)
- T/C (dose: 12.5 mg/kg/injection, schedule: Q01DX009 (ip), vehicle: saline): 107 % of control
- T/C (dose: 25.0 mg/kg/injection, schedule: Q01DX009 (ip), vehicle: saline): 104 % of control
- T/C [5]: 100 % of control

SMILES: CCCCc1c(O)c2c(=O)[nH]c(C)nc2oc1=O
- T/C (dose: 3.75 mg/kg/injection, schedule: Q01DX005 (ip), vehicle: Klucel (hydroxypropylcellulose) (HPC)): 96 % of control
- T/C (dose: 7.5 mg/kg/injection, schedule: Q01DX005 (ip), vehicle: Klucel (hydroxypropylcellulose) (HPC)): 95 % of control
- T/C (dose: 15.0 mg/kg/injection, schedule: Q01DX005 (ip), vehicle: Klucel (hydroxypropylcellulose) (HPC)): 92 % of control

SMILES: COc1cc(C(=O)NCC(=O)NN=C(C)C)cc(OC)c1OC
- T/C [6]: 104 % of control
- T/C [7]: 95 % of control
- T/C [8]: 107 % of control

SMILES: C/C(=N/NS(=O)(=O)c1ccc(C)cc1)C(=NO)/C(C)=N\NS(=O)(=O)c1ccc(C)cc1
- T/C [5]: 92 % of control
- T/C [9]: 100 % of control
- T/C [10]: 101 % of control

SMILES: COC(=O)C(CCCN=C(N)N[N+](=O)[O-])NC(=O)c1ccc2c(c1O)C(=O)c1ccccc1C2=O (stereo unspecified)
- T/C (dose: 100.0 mg/kg/injection, schedule: Q04DX002 (ip), vehicle: saline with Tween-80): 96 % of control
- T/C (dose: 200.0 mg/kg/injection, schedule: Q04DX002 (ip), vehicle: saline with Tween-80): 92 % of control
- T/C (dose: 400.0 mg/kg/injection, schedule: Q04DX002 (ip), vehicle: saline with Tween-80): 92 % of control

SMILES: CCOc1c(N=Nc2ccc(OC)cc2)c(C)nn1C(=S)SC
- T/C (dose: 60.0 mg/kg/injection, schedule: Q01DX005 (ip), vehicle: Klucel + Tween-80): 92 % of control
- T/C (dose: 120.0 mg/kg/injection, schedule: Q01DX005 (ip), vehicle: Klucel + Tween-80): 92 % of control
- T/C (dose: 240.0 mg/kg/injection, schedule: Q01DX005 (ip), vehicle: Klucel + Tween-80): 89 % of control

SMILES: COc1ccc(/C=N/N2CN(C(C)C(=O)O)C(O)(CCl)N=C2N)cc1OC (stereo unspecified)
- T/C (dose: 60.0 mg/kg/injection, schedule: Q01DX005 (ip), vehicle: saline): 108 % of control
- T/C (dose: 120.0 mg/kg/injection, schedule: Q01DX005 (ip), vehicle: saline): 114 % of control

SMILES: C=C1C(=O)OC2/C=C(\C)CC/C=C(/CO)C(OC(=O)C(C)(C)O)C(OC(=O)C(C)C)C12 (stereo unspecified)
- T/C (dose: 5.0 mg/kg/injection, schedule: Q01DX009 (ip), vehicle: other): 107 % of control

SMILES: CCN(/C=N/N(C)S(C)(=O)=O)c1ccccc1
- T/C [6]: 104 % of control
- T/C [7]: 116 % of control
- T/C [8]: 118 % of control

SMILES: O=C(/C=C\c1ccc(Cl)cc1)c1ccccc1
- T/C (dose: 12.5 mg/kg/injection, schedule: Q01DX009 (ip), vehicle: Klucel (hydroxypropylcellulose) (HPC)): 101 % of control and 91 % of control
- T/C [2]: 100 % of control
- T/C [3]: 93 % of control and 95 % of control
- T/C (dose: 50.0 mg/kg/injection, schedule: Q01DX009 (ip), vehicle: gum acacia): 98 % of control
- T/C (dose: 100.0 mg/kg/injection, schedule: Q01DX009 (ip), vehicle: Klucel (hydroxypropylcellulose) (HPC)): 99 % of control and 93 % of control
- T/C (dose: 100.0 mg/kg/injection, schedule: Q01DX009 (ip), vehicle: gum acacia): 104 % of control
- T/C [4]: 98 % of control and 100 % of control
- T/C (dose: 200.0 mg/kg/injection, schedule: Q01DX009 (ip), vehicle: gum acacia): 104 % of control
- T/C (dose: 400.0 mg/kg/injection, schedule: Q01DX009 (ip), vehicle: Klucel (hydroxypropylcellulose) (HPC)): 108 % of control and 92 % of control
- T/C (dose: 400.0 mg/kg/injection, schedule: Q01DX009 (ip), vehicle: gum acacia): 104 % of control

SMILES: CCOC(=O)C1=C(NC(=O)Nc2ccccc2)N(C(=O)Nc2ccccc2)CCC1
- T/C [11]: 100 % of control
- T/C [12]: 99 % of control
- T/C [13]: 102 % of control

SMILES: O=C(NC(Cc1cn(Cc2ccccc2)cn1)C(=O)O)OCC1c2ccccc2-c2ccccc21 (stereo unspecified)
- T/C [6]: 104 % of control
- T/C [7]: 98 % of control
- T/C [8]: 99 % of control

SMILES: C=CCSc1nc(N)nc(Nc2ccccc2)n1
- T/C (dose: 100.0 mg/kg/injection, schedule: Q01DX001 (ip), vehicle: saline with Tween-80): 98 % of control
- T/C (dose: 200.0 mg/kg/injection, schedule: Q01DX001 (ip), vehicle: saline with Tween-80): 92 % of control
- T/C (dose: 400.0 mg/kg/injection, schedule: Q01DX001 (ip), vehicle: saline with Tween-80): 87 % of control

SMILES: O=C(CCl)NCCCl
- T/C [5]: 97 % of control
- T/C [9]: 100 % of control

SMILES: CC(=O)NCCSSCCSC(=S)N1CCCCC1
- T/C [6]: 112 % of control
- T/C [7]: 107 % of control
- T/C [8]: 102 % of control

SMILES: O=c1oc(-c2ccc([N+](=O)[O-])cc2Cl)nc2ccccc12
- T/C [5]: 106 % of control
- T/C [9]: 105 % of control
- T/C [10]: 106 % of control

SMILES: Cn1c2nc(-[n+]3ccc(N4CCOCC4)cc3)nc-2c([O-])n(C)c1=O
- T/C (dose: 100.0 mg/kg/injection, schedule: Q04DX003 (ip), vehicle: saline): 100 % of control
- T/C (dose: 200.0 mg/kg/injection, schedule: Q04DX003 (ip), vehicle: saline): 101 % of control
- T/C (dose: 400.0 mg/kg/injection, schedule: Q04DX003 (ip), vehicle: saline): 100 % of control

SMILES: CC1(C)C=CC(=O)C=C1C#N
- T/C (dose: 100.0 mg/kg/injection, schedule: Q01DX001 (ip), vehicle: Klucel (hydroxypropylcellulose) (HPC)): 92 % of control
- T/C (dose: 200.0 mg/kg/injection, schedule: Q01DX001 (ip), vehicle: Klucel (hydroxypropylcellulose) (HPC)): 104 % of control
- T/C (dose: 400.0 mg/kg/injection, schedule: Q01DX001 (ip), vehicle: Klucel (hydroxypropylcellulose) (HPC)): 106 % of control

SMILES: CCCCC(=O)Oc1cc(=O)n(C)c2cc(C)n(C)c(=O)c12
- T/C [14]: 98 % of control
- T/C [15]: 103 % of control
- T/C [16]: 106 % of control

SMILES: CC1(C)OCC(C2OC(O)C3OC(C)(C)OC32)O1 (stereo unspecified)
- T/C (dose: 50.0 mg/kg/injection, schedule: Q01DX005 (ip), vehicle: saline): 100 % of control
- T/C (dose: 100.0 mg/kg/injection, schedule: Q01DX005 (ip), vehicle: saline): 101 % of control
- T/C (dose: 200.0 mg/kg/injection, schedule: Q01DX005 (ip), vehicle: saline): 107 % of control

SMILES: CCOC(=O)c1sc2nc(C)cc(C)c2c1N
- T/C (dose: 6.25 mg/kg/injection, schedule: Q01DX005 (ip), vehicle: saline with Tween-80): 95 % of control
- T/C (dose: 12.5 mg/kg/injection, schedule: Q01DX005 (ip), vehicle: saline with Tween-80): 100 % of control
- T/C (dose: 25.0 mg/kg/injection, schedule: Q01DX005 (ip), vehicle: saline with Tween-80): 98 % of control

SMILES: CCCCC(CC)C(=O)OCCNC(=O)C(C)OC(=O)C(CC)CCCC (stereo unspecified)
- T/C [1]: 105 % of control
- T/C [6]: 102 % of control
- T/C [7]: 95 % of control
- T/C [8]: 105 % of control

SMILES: C=C(C)C(=O)OC1CCCC2C(=C)C(=O)OC12 (stereo unspecified)
- T/C [14]: 105 % of control
- T/C [15]: 100 % of control
- T/C [16]: 107 % of control

SMILES: CN1CN(c2ccc([N+](=O)[O-])cc2)N=N1
- T/C [6]: 95 % of control
- T/C [7]: 97 % of control
- T/C [8]: 94 % of control

SMILES: C[n+]1cccc(NC(=O)c2ccc(NC(=O)c3ccc(C(=O)Nc4ccc(NC(=N)N)cc4)cc3)cc2)c1
- T/C (dose: 4.7 mg/kg/injection, schedule: Q01DX009 (ip), vehicle: saline): 110 % of control
- T/C (dose: 9.4 mg/kg/injection, schedule: Q01DX009 (ip), vehicle: saline): 90 % of control
- T/C (dose: 12.5 mg/kg/injection, schedule: Q04DX003 (ip), vehicle: saline): 195 % of control

SMILES: FC12CCC(c3ccccc3)(CC1)CC2
- T/C [11]: 98 % of control
- T/C [12]: 100 % of control
- T/C [13]: 103 % of control
